Some test systems named below: CCRF-CEM leukemia; COLO 205 colon; HCC-2998 colon; HS 578T breast; M14 melanoma; OVCAR-8 ovarian; PC-3 prostate; SF-539 CNS; SK-MEL-5 melanoma; U251 CNS.
What all share (assay): growth of human tumour cells (NCI), 48 h

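How tested: cells in 96-well plates exposed to compound for 48 hours at five concentrations. Definition used: TGI = concentration required for complete inhibition of growth.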

In the case of `C#CCOCC12C=CC(O1)C1C(=O)OCC12` (centres undefined), the TGI with CCRF-CEM leukemia, in the experiment with COLO 205 colon, with HCC-2998 colon, in the experiment with HS 578T breast, with M14 melanoma and in the experiment with OVCAR-8 ovarian was more than 100 µM throughout. Besides, the TGI with PC-3 prostate, in the experiment on SF-539 CNS, in the experiment on SK-MEL-5 melanoma and in the experiment on U251 CNS was more than 100 µM in each case.

On to `CC1=NN(C(=O)CSc2nc3ccc(I)cc3c(=O)n2Cc2ccccc2)C(=O)C1`, for which the TGI in the experiment with CCRF-CEM leukemia was more than 100 µM; in the experiment on COLO 205 colon, 92.5 µM; in the experiment on HCC-2998 colon it was more than 100 µM; in the experiment with HS 578T breast it was 35.8 µM; with M14 melanoma, more than 100 µM; with OVCAR-8 ovarian, more than 100 µM. Further, the TGI with PC-3 prostate was 49.7 µM; in the experiment with SF-539 CNS, more than 100 µM; in the experiment with SK-MEL-5 melanoma it was 55.2 µM; in the experiment on U251 CNS, 67.4 µM.

Regarding `CCN(c1cccc(NC(=S)Nc2ccccc2N(CC)c2cc(-c3ccccc3)no2)c1)c1cc(-c2ccccc2)no1`, the TGI in the experiment with CCRF-CEM leukemia, in the experiment with COLO 205 colon, in the experiment on HCC-2998 colon, with HS 578T breast, with M14 melanoma and in the experiment with OVCAR-8 ovarian was more than 100 µM throughout. The TGI in the experiment with PC-3 prostate, in the experiment with SF-539 CNS, in the experiment with SK-MEL-5 melanoma and with U251 CNS was more than 100 µM throughout.

On to `OC1(c2ccccc2)CSC2=Nc3ccccc3C3CCN1N23` (centres undefined), for which the TGI with CCRF-CEM leukemia was 94.1 µM; in the experiment with COLO 205 colon it was 32.3 µM; with HCC-2998 colon, 88.7 µM; in the experiment on HS 578T breast it was more than 100 µM; in the experiment on M14 melanoma it was 38.3 µM; in the experiment with OVCAR-8 ovarian, 43.5 µM. Further, the TGI with PC-3 prostate was determined as 29.5 µM; in the experiment with SF-539 CNS, 30.8 µM; with SK-MEL-5 melanoma, 35.9 µM; with U251 CNS it was 28.1 µM.

Consider `COc1ccc(N=C2C(=Nc3ccc(OC)cc3)N(c3ccccc3)C(=S)N2N=C=C2Sc3ccccc3N2C)cc1`, for which the TGI in the experiment on COLO 205 colon, with HCC-2998 colon, in the experiment on HS 578T breast, in the experiment with M14 melanoma, in the experiment on OVCAR-8 ovarian and with PC-3 prostate was more than 100 µM each time. In addition, the TGI in the experiment on SF-539 CNS, in the experiment with SK-MEL-5 melanoma and with U251 CNS was more than 100 µM in each case.

In the case of `Cc1cc(O)c(C(C)C)cc1C1(c2cc(C(C)C)c(O)cc2C)OC(=O)c2ccccc21`, the TGI stood at 3.1 µM with CCRF-CEM leukemia; 4.96 µM in the experiment on COLO 205 colon; 3.48 µM with HCC-2998 colon; 6.88 µM in the experiment on HS 578T breast; 3.15 µM in the experiment on M14 melanoma; 9.14 µM in the experiment with OVCAR-8 ovarian. For the same molecule, the TGI in the experiment on PC-3 prostate is 4.95 µM; in the experiment with SF-539 CNS, 3.72 µM; in the experiment on SK-MEL-5 melanoma it was 2.99 µM; with U251 CNS, 3.9 µM.

As for `Nc1ccc(CCN2CCN(CCCc3ccccc3)CC2)cc1`, the TGI in the experiment on CCRF-CEM leukemia, with COLO 205 colon, with HCC-2998 colon, in the experiment on HS 578T breast, in the experiment with M14 melanoma and in the experiment with OVCAR-8 ovarian was more than 100 µM each time. Further, the TGI in the experiment with PC-3 prostate, in the experiment on SF-539 CNS, in the experiment on SK-MEL-5 melanoma and in the experiment on U251 CNS was more than 100 µM in each case.

Take `Brc1c(C#CCC2CCCCC2)ccc(C#CCC2CCCCC2)c1Br`: the TGI with CCRF-CEM leukemia, in the experiment on COLO 205 colon, in the experiment with HCC-2998 colon, in the experiment with HS 578T breast, in the experiment with M14 melanoma and in the experiment with OVCAR-8 ovarian was more than 100 µM in each case. Moreover, the TGI in the experiment on PC-3 prostate, in the experiment on SF-539 CNS, in the experiment on SK-MEL-5 melanoma and in the experiment with U251 CNS was more than 100 µM throughout.

Consider `C=CCOC(=O)C1C2OC3(C(C(=O)OC)=C2C(=O)OC)c2ccccc2CCC13` (centres undefined), for which the TGI in the experiment on CCRF-CEM leukemia, in the experiment with COLO 205 colon, in the experiment on HCC-2998 colon, in the experiment with HS 578T breast, in the experiment with M14 melanoma and in the experiment with OVCAR-8 ovarian was more than 10 µM throughout. Further, the TGI in the experiment on PC-3 prostate, with SF-539 CNS, in the experiment with SK-MEL-5 melanoma and in the experiment with U251 CNS was more than 10 µM throughout.

Regarding `O=c1onc2c3ccccc3ncn12`, the TGI with CCRF-CEM leukemia, in the experiment with COLO 205 colon, in the experiment with HCC-2998 colon, in the experiment with HS 578T breast, with M14 melanoma and with OVCAR-8 ovarian was more than 100 µM in each case. Besides, the TGI in the experiment with PC-3 prostate, in the experiment with SF-539 CNS, with SK-MEL-5 melanoma and in the experiment on U251 CNS was more than 100 µM each time.

With `c1ccc(CSCCc2ccncc2)cc1`, the TGI in the experiment on CCRF-CEM leukemia, with COLO 205 colon, in the experiment with HCC-2998 colon, in the experiment on HS 578T breast, in the experiment on M14 melanoma and in the experiment on OVCAR-8 ovarian was more than 100 µM each time. Also, the TGI in the experiment on PC-3 prostate, in the experiment on SF-539 CNS, in the experiment on SK-MEL-5 melanoma and in the experiment on U251 CNS was more than 100 µM throughout.

As for `COc1cccc(NC(=O)C(C#N)=C(SC)SC)c1`, the TGI with CCRF-CEM leukemia, in the experiment on COLO 205 colon, in the experiment with HCC-2998 colon, in the experiment with HS 578T breast, in the experiment with M14 melanoma and in the experiment with OVCAR-8 ovarian was more than 100 µM in each case. The TGI with PC-3 prostate, in the experiment with SF-539 CNS, with SK-MEL-5 melanoma and in the experiment with U251 CNS was more than 100 µM throughout.

For the molecule `Nc1nc(Cl)c(N)c(NCC2(CO)CC(CCCc3ccccc3)C2)n1` (centres undefined), the TGI in the experiment with CCRF-CEM leukemia was 7.16 µM; in the experiment with COLO 205 colon, 45.6 µM; with HCC-2998 colon, more than 100 µM; in the experiment with HS 578T breast, more than 100 µM; with M14 melanoma, more than 53.4 µM; in the experiment with OVCAR-8 ovarian, more than 100 µM. Also, the TGI in the experiment on PC-3 prostate was more than 91.5 µM; in the experiment with SF-539 CNS it was more than 64.2 µM; in the experiment with SK-MEL-5 melanoma, 15.4 µM; with U251 CNS, more than 100 µM.

The values above are taken from PubChem BioAssay (NCI).
